Data published in patent publication US20090054507A1, “CONTROL OF MALIGNANT CELLS BY KINASE INHIBITION” (CLEVELAND STATE UNIVERSITY, priority 2006, published 2009).

How the values were obtained:
[1] = tested on: WM-164 cells; assay: Annexin V apoptosis/necrosis assay, WM-164; assay type: cell-based, human
Protocol: (§1) Apoptosis Assays using Flow Cytometry with Annexin V-FITC and propidium iodide (PI). For induction of typical apoptosis, cells were grown in the presence of 1 μM staurosporine (Sigma-Aldrich) for 6 hours. The staurosporine treated cells were stained as follows: control 1 with PI, control 2 with Annexin V-FITC and control 3 both PI and Annexin V-FITC in order to have the brightest controls for compensation and proper collection of the flow cytometry data. Cell necrosis was induced by heat shock (65° C. for 30 minutes). The stained control, both PI and Annexin V-FITC labeled, was then used as the reference in establishing the level of apoptosis induced by the treatments. Data was collected on logarithmic modes, two-colors. Annexin V-FITC corresponds to FL1 H channel, and PI to FL3H or FL2H channels.
(§2) Annexin V-FITC and PI apoptosis assay staining protocol. Apoptosis Annexin V-FITC and PI kit from BD Biosciences, CA, USA, was used. 10^5-10^6 cells were stained with 50 μg/ml PI and with 0.5 μg/ml FITC-labeled Annexin V using the staining protocol provided by the supplier. Samples were then analyzed immediately by flow cytometry.

[2] = In vivo toxicity study for DMAT; design: species or system mouse
Protocol: In vivo toxicity study for DMAT. A male nude mouse (without tumors) was treated with DMAT to determine a toxicity level. A saturated solution of DMAT in DMSO was inoculated daily in the neck subcutaneously (100 μl of 100 mg/ml DMAT in DMSO). Therefore this animal received 10 mg DMAT per day. After 2 weeks this animal was sacrificed and organs were collected for further analysis.

[3] = tested on: SW-480 cells; assay: Annexin V apoptosis/necrosis assay, SW-480; assay type: cell-based, human
Protocol: as §1, §2

[4] = tested on: MCF-7 xenografts; assay: In vivo therapy of MCF-7 xenografts, tumor volume; design: species or system mice
Excerpt: (§3) Creation of the xenografts MCF-7, SW-480 and WM-164. Immunodeficient male and female athymic nude nu/nu mice were used, provided and housed by Dr. Lindner, DJ from Taussig Cancer Center, Cleveland Clinic and Case Western Reserve University. Mice were checked every day. Mice were housed in filtered air flow cabinets with autoclaved bedding at a density of 5 mice/cage. They were fed autoclaved Purina Lab Rodent Chow® 5010 and HCl-acidified distilled water ad libitum and were placed in rooms with controlled temperature, humidity and 12-hr light-dark cycles. Procedures involving animals and their care were conducted in conformity with the institutional guidelines that are in compliance with national and international laws and policies (EEC Council Directive 86/609, OJL 358, Dec. 1, 1987, and the National Institutes of Health Guide for the Care and Use of Laboratory, Animals, NIH Publication 85-23, 1985).
(§4) For engraftment, cells in cell culture media were injected. […] Cells were counted with a hemacytometer using Trypan blue (only live cells were counted). […]
In vivo therapy with DMAT of MCF-7 xenografts. […] Tumor diameters were measured using a caliper and tumor volume was calculated using the prolate-spheroid formula. […]

[5] = tested on: WM-164 xenografts; assay: In vivo therapy of WM-164 xenografts, tumor volume; design: species or system mice
Excerpt: as §3, §4
In vivo therapy with DMAT of WM-164 xenografts. […] Tumor diameters were measured using a caliper and tumor volume was calculated using the prolate-spheroid formula. […]

[6] = 200 mg/kg per day DMAT (in DMSO), subcutaneous in the neck, 2 weeks

For CN(C)c1nc2c(Br)c(Br)c(Br)c(Br)c2[nH]1 [DMAT, 2-dimethylamino-4,5,6,7-tetrabromo-1H-benzimidazole], the “level of necrotic cells” value ([1]; 10 μM DMAT, 24 hours, control 4.8%) was 2.0%, the “level of apoptotic cells” value ([1]; 10 μM DMAT, 24 hours, control 16.9%) was 36.8% and the “level of apoptic cells” value ([1]; 20 μM DMAT) was 26.8%. For the same compound, the “level of necrotic cells” value ([1]; 20 μM DMAT) was 4.1%, the “histological analyses of all organs vs control animal (not injected)” value ([2]; 10 mg/day/animal for 2 weeks) was “did not show any difference” and the behavior [2, 6] was “generally normal behavior”. The liver size [2, 6] was “appeared to have increased in size”, the injection site ([2]; 200 mg/kg per day DMAT (in DMSO), subcutaneous in the neck, 2 weeks, male athymic nude mouse) was “irritated and swollen like a cyst” and the “level of apoptotic cells” value ([3]; 10 μM DMAT, 24 hours, control 1.9%) was 17.5%. The “level of necrotic cells” value ([3]; 10 μM DMAT, 24 hours, control 3.5%) was 1.9%, the “level of apoptotic cells” value ([3]; 20 μM DMAT) was 27.6% and the “level of necrotic cells” value ([3]; 20 μM DMAT) was 2.4%. For the same compound, the tumor volume ([4]; DMAT 10 mg/kg (in DMSO) per day, 13 day period, control about 50 to about 1750 mm^3) was “remarkably stable size and nearly no increase”, the “response of xenograft tumors to treatment (summary)” value ([4]; mouse, in vivo) was “tumor ablation” and the tumor volume ([5]; DMAT 10 mg/kg (in DMSO) per day, fourteen days, control about 50 to about 1000 mm^3) was “only a slight increase in tumor volume”. The “response of xenograft tumors to treatment (summary)” value ([5]; small tumors remained at the end of the treatment) was “significant reduction in tumor volume”.
